In ChEMBL document CHEMBL1201862, “PubChem BioAssay data set” (2004) one finds IC50, EC50 and AC50 data, which are given here for three compounds.

Each structure is given as a SMILES string. Activity calls are given as the source filed them. Bounds are passed on as bounds.

One may read the IC50 as the concentration at which inhibition is half-maximal. As usually defined, the EC50 is the concentration at which the effect is half-maximal. As usually defined, the AC50 is the concentration giving half of the maximal activity seen.

The target in assay [1] is T1, Apoptotic protease-activating factor 1 (Homo sapiens, UniProt O14727).
T1 sequence (O14727 whole entry): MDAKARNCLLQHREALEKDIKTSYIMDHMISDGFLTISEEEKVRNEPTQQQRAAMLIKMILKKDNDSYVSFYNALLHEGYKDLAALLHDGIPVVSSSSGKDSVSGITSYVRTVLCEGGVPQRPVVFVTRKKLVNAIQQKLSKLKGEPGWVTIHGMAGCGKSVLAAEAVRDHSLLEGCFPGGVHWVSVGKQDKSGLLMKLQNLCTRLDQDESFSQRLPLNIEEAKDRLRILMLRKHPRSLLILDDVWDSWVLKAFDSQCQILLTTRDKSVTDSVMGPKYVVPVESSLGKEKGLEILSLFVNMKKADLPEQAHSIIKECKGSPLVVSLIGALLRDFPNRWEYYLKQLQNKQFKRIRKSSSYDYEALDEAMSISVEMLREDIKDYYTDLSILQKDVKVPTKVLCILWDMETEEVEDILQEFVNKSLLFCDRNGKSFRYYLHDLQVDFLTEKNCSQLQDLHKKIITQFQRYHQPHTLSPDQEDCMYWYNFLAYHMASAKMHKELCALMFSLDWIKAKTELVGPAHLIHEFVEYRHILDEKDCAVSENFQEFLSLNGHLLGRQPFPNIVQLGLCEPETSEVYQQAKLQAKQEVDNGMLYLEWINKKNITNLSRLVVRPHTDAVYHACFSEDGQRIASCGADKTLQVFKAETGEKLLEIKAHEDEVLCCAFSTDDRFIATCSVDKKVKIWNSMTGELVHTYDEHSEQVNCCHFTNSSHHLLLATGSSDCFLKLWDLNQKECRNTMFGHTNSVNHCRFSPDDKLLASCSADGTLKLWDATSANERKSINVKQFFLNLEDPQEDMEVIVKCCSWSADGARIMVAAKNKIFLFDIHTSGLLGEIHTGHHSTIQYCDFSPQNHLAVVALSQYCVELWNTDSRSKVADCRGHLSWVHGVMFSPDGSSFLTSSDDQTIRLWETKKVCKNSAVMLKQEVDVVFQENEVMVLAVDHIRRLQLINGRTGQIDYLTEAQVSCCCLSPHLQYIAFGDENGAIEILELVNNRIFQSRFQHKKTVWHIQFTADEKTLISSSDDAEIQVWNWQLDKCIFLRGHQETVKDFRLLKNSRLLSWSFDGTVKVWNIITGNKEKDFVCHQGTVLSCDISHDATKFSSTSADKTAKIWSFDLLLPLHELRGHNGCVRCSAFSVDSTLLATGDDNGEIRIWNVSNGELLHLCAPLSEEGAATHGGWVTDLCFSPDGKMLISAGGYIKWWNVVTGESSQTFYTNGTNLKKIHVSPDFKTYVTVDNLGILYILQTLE
The format is functional.

Assay [2] deals with T2, RNA-binding protein pos-1 (Caenorhabditis elegans, UniProt G5EF15).
T2 sequence (G5EF15 whole entry): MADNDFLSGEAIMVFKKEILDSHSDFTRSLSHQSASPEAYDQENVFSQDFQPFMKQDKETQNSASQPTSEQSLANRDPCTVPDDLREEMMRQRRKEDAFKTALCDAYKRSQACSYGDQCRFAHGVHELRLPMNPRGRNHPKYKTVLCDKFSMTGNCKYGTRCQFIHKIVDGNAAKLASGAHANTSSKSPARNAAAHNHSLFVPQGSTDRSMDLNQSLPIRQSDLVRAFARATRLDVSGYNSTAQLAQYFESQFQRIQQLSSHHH
Nature of the assay: inhibitors of POS-1/mex-3 RNA binding, dose response, biochemical, fluorescence polarization (AID 1964).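 Further: purified POS-1 fused to maltose binding protein made in E. coli; potency of compounds blocking POS-1 binding to fluorescent RNA.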 On the technique in general: Fluorescence polarisation rises when a labelled molecule tumbles more slowly, as on binding a larger partner.

For assay [3], the system named is Streptococcus sp. 'group A'. Nature of the assay: growth inhibition of control SK(-) GAS strain, dose response, counter-screen for streptokinase expression inhibitor project, luminescence, kanamycin, BacTiterGlo, confirmation (AID 1900). The format is functional, organism-based. (In general: The purpose of a counterscreen is to sort out artefacts and off-target activity.)

For the next assay, the system named is INS1. Nature of the assay: beta cell apoptosis inhibitors, cytokine rescue, dose response, luminescence, retest (AID 449756).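 Further: cell death triggered by IL-1 beta plus TNF-alpha plus IFN-gamma mixture; protective hits raise ATP signal compared with cytokine alone wells.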 It counts as functional, cell-based. The following applies: Rattus norvegicus.
For another assay, the target named is Large T antigen (Simian virus 40, UniProt P03070). The format is functional, Betapolyomavirus macacae.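 Further: Confirmatory-stage PubChem screen for compounds that inhibit SV40 T antigen.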
Assay [4] is described as follows: HepG2 cell cytotoxicity, dose response, cytotoxicity control for Shn3 inhibitor project, CellTiter-Glo, cherry-picked (AID 624134). It counts as functional, cell-based. Background: Cellular ATP, detected with luciferase, serves as a proxy for viable cell number.
A further assay concerns the target Fatty acid synthase (Homo sapiens, UniProt P49327). Nature of the assay: FAS thioesterase domain inhibitors, dose response, biochemical, endpoint fluorescence intensity, uHTS hits (AID 624327).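 Further: fluorescence from hydrolysis of an O-methyl fluorescein acyl ester substrate by the enzyme.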 The format is functional.
Assay [5] addresses T3, Type-1 angiotensin II receptor (Homo sapiens, UniProt P30556).
T3 sequence (P30556 whole entry): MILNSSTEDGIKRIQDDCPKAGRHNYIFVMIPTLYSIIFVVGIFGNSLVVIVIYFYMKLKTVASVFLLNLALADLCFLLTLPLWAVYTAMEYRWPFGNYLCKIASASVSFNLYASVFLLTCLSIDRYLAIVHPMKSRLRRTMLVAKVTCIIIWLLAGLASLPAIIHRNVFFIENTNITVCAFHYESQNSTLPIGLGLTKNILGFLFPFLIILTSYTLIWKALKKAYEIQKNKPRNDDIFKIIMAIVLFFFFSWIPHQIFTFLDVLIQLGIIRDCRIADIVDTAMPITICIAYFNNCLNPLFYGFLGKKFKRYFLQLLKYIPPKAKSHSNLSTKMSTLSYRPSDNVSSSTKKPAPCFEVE
As to the kind of experiment: AT1 receptor antagonists, dose response, selectivity assay for APJ receptor antagonist project, cell-based, uHTS hits (AID 463214).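 Further: antagonist potency against angiotensin II stimulated AT1 response.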 The format is functional.

A further assay has as its system CHO. As to the kind of experiment: cytotoxicity in TLR9-MyD88 CHO cells, dose response, cytotoxicity control for TLR9-MyD88 binding inhibitor project, cell-based, luminescence (AID 588339).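 Further: CHO cells stably coexpressing TLR9 and MyD88 fusions from primary screen; compound exposure lasted 48 hours before viability readout.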 The format is functional, hamster. The following applies: Cricetulus griseus.
Assay [6] is described as follows: inhibitors of firefly luciferase expression or activity, dose response, H4 neuroglioma cells, luminescence (AID 1990). The format is functional, cell-based.
In assay [7] the target is T4, High affinity choline transporter 1 (Homo sapiens, UniProt Q9GZV3).
T4 sequence (Q9GZV3 whole entry): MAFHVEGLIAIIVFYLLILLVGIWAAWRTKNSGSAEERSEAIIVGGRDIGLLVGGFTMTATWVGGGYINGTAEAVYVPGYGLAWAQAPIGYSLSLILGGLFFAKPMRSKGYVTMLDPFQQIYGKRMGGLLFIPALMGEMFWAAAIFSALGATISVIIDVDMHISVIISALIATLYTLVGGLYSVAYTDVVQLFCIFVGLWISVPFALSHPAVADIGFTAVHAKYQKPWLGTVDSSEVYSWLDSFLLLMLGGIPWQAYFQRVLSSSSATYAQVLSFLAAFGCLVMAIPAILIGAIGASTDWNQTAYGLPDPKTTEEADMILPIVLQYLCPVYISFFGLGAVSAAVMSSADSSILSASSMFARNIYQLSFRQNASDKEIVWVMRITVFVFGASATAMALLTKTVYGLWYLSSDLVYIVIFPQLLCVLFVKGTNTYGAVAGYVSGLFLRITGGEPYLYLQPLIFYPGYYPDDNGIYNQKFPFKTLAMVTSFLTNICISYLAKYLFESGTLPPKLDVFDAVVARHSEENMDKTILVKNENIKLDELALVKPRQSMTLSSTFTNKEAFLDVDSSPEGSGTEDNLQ
Nature of the assay: CHT inhibitors, dose response, cell-based, 5-point CRC, membrane potential dye (AID 504840). It counts as functional.

Chain of Large T antigen (P03070 whole entry): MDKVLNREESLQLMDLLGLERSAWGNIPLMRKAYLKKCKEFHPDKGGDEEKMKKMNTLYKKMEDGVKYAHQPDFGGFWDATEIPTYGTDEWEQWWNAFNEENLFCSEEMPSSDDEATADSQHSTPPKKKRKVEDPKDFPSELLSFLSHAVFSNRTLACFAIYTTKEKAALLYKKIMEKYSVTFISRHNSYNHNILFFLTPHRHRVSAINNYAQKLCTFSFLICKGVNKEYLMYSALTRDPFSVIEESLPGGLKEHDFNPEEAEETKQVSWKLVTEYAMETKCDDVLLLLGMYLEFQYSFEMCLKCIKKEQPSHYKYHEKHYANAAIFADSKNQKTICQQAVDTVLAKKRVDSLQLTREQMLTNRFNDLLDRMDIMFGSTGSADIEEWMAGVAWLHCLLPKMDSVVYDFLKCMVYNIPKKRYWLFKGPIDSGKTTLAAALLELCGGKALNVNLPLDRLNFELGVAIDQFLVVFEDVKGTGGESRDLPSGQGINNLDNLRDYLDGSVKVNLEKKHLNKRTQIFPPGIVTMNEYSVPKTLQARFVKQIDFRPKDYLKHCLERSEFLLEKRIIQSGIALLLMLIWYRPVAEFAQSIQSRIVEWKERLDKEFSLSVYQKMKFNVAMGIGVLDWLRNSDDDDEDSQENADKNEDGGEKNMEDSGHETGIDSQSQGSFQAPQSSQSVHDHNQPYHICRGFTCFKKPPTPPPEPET
Chain of Fatty acid synthase (P49327 whole entry, the tested form may be a part): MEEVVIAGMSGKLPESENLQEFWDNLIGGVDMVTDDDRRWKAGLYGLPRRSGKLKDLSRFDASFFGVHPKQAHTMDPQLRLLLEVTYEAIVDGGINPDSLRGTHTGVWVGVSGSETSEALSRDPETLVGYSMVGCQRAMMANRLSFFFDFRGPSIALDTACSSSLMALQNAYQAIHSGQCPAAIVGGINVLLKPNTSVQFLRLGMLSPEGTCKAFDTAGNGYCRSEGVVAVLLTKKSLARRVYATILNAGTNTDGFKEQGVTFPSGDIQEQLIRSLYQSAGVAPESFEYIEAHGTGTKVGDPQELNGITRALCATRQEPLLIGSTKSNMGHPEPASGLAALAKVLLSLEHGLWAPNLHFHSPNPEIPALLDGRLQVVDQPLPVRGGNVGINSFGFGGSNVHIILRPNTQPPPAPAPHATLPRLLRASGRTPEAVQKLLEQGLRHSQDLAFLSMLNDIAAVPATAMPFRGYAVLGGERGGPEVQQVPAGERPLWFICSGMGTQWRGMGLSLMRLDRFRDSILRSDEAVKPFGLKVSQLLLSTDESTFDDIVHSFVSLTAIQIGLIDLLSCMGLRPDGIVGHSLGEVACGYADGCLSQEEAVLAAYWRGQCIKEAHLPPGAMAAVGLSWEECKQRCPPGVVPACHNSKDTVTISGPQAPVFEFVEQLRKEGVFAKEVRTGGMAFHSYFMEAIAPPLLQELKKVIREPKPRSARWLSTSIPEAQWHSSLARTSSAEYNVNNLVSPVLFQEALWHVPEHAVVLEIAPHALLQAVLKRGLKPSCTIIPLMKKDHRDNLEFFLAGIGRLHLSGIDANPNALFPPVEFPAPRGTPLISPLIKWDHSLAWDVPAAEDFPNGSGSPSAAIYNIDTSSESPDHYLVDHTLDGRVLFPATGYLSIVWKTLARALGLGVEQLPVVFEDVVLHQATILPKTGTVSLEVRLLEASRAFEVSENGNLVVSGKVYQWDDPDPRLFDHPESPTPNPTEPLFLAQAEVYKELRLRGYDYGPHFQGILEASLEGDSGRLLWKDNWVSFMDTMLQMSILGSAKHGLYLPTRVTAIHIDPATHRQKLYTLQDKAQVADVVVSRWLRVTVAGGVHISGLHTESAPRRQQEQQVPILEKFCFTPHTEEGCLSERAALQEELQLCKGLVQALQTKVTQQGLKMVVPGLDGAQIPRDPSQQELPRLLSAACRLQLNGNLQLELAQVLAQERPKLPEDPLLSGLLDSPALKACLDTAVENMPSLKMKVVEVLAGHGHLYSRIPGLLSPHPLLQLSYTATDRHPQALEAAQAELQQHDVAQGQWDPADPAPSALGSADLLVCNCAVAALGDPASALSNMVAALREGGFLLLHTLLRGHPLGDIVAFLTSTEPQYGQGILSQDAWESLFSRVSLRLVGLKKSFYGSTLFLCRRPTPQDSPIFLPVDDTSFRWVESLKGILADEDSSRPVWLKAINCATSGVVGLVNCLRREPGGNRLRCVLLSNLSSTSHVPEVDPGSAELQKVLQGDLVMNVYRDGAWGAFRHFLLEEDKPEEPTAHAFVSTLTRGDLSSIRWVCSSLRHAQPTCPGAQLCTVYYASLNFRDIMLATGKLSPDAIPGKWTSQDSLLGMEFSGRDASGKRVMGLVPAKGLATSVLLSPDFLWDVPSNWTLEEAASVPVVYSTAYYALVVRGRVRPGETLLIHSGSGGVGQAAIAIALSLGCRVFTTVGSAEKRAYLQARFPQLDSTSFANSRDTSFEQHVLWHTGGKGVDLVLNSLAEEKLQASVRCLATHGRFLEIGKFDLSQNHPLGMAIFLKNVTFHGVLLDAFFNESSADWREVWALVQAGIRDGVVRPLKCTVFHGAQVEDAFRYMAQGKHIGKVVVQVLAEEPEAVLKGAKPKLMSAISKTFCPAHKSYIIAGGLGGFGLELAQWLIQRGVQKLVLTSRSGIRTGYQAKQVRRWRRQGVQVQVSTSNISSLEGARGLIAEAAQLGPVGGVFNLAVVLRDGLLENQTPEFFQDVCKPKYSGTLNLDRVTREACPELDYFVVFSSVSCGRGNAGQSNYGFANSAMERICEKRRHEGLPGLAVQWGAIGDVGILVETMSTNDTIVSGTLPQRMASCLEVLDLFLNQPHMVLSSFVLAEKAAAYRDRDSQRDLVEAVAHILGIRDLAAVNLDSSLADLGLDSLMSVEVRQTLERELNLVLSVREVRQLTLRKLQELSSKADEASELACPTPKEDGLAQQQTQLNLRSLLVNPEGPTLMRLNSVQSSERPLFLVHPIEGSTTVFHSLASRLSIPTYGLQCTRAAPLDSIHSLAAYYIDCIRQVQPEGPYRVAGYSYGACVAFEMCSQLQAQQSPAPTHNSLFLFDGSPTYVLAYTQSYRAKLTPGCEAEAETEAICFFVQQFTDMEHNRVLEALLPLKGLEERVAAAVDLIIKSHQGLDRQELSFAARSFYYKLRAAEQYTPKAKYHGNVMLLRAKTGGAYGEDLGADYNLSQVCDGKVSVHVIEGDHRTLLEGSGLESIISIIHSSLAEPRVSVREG

In the case of `CCCC[n+]1ccn(C2=C([N-]S(=O)(=O)c3ccc(Cl)cc3)C(=O)c3ccccc3C2=O)c1`, the IC50 in assay [1] is 19.3 µM (active). Also, the EC50 in [2] is > 300 µM (inconclusive).

As to `CC(=O)c1cccc2c1N=C(c1[nH]c3ccccc3c1O)C2=O`, the 50% effective concentration (EC50) in [3] was 3.8 µM (active).

Turning to `CCC1CCCCN1S(=O)(=O)c1ccc(NC(=O)c2nc(S(C)(=O)=O)ncc2Cl)cc1` (stereo unspecified), the AC50 was 5.24 µM (active) in the assay on INS1 and 17 µM (active) in assay [4]. Moreover, the IC50 is 44.8 µM (active) on Large T antigen; 5.75 µM (active) at Fatty acid synthase; 5.9 µM (active) in [5]; 1.91 µM (active) in the assay with CHO; 15.8 µM (active) in assay [7]. In addition, the EC50 in [6] is 11.2 µM (active).
